{"source": "patent US20150044702A1", "about": "“MEANS AND METHODS FOR ASSESSING DISORDERS RELATED TO IMPAIRED IRON […] ENERGY METABOLISM” (BASF SE, priority 2012, published 2015)", "experiment": "28-day rat study, plasma metabolite profiling: markers for Duodenum iron deficiency;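 note: rats given the compounds once a day across 28 days, plasma from fasted animals profiled by GC-MS and LC-MS, separate control groups of five rats per sex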", "details": "for Cholic acid, treatment ratio versus control / Choline plasmalogen (C18,C20:4), treatment ratio versus control / Citrate, treatment ratio versus control / Creatinine, treatment ratio versus control / DAG (C18:1,C18:2), treatment ratio versus control / Hippuric acid, treatment ratio versus control / Indole-3-propionic acid, treatment ratio versus control / Methionine, treatment ratio versus control / Proline, treatment ratio versus control / Serine, treatment ratio versus control / TAG (C16:0,C18:1,C18:3), treatment ratio versus control / TAG (C18:1,C18:2), treatment ratio versus control / TAG (C18:2,C18:2), treatment ratio versus control / TAG (C18:2,C18:3), treatment ratio versus control / TAG (DAG-Fragment), treatment ratio versus control / TAG No 02, treatment ratio versus control / TAG No 07, treatment ratio versus control / Threonine, treatment ratio versus control / alpha-Tocopherol, treatment ratio versus control / Alanine, treatment ratio versus control / Campesterol, treatment ratio versus control / Glutamate, treatment ratio versus control / Glutamine, treatment ratio versus control / Lysophosphatidylcholine (C20:4), treatment ratio versus control / Malate, treatment ratio versus control / Ornithine, treatment ratio versus control / Phosphatidylcholine (C18:0, C22:6), treatment ratio versus control / Threonic acid, treatment ratio versus control: plasma", "note": "Marks after values point to notes of the source that are not given here.", "protocol": "A group of each 5 male and female rats was dosed once daily with the indicated compounds (see Table 4, below for compounds, applied doses and administration details) over 28 days.\nEach dose group in the studies consisted of five rats per sex. Additional groups of each 5 male and female animals served as controls. Before starting the treatment period, animals, which were 62-64 days old when supplied, were acclimatized to the housing and environmental conditions for 7 days. All animals of the animal population were kept under the same constant temperature (20-24±3° C.) and the same constant humidity (30-70%). The animals of the animal population were fed ad libitum. The food to be used was essentially free of chemical or microbial contaminants. Drinking water was also offered ad libitum. Accordingly, the water was free of chemical and microbial contaminants as laid down in the European Drinking Water Directive 98/83/EG. The illumination period was 12 hours light followed by 12 hours darkness (12 hours light, from 6:00 to 18:00, and 12 hours darkness, from 18:00 to 6:00). The studies were performed in an AAALAC-approved laboratory in accordance with the German Animal Welfare Act and the European Council Directive 86/609/EE. The test system was arranged according to the OECD 407 guideline for the testing of chemicals for repeated dose 28-day oral toxicity study in rodents.\nIn the morning of day 7, 14, and 28, blood was taken from the retroorbital venous plexus from fasted anaesthetized animals. From each animal, 1 ml of blood was collected with EDTA as anticoagulant. The samples were centrifuged for generation of plasma. All plasma samples were covered with a N2 atmosphere and then stored at −80° C. until analysis.\nFor mass spectrometry-based metabolite profiling analyses plasma samples were extracted and a polar and a non-polar (lipid) fraction was obtained. For GC-MS analysis, the non-polar fraction was treated with methanol under acidic conditions to yield the fatty acid methyl esters. Both fractions were further derivatised with O-methyl-hydroxyamine hydrochloride and pyridine to convert Oxo-groups to O-methyloximes and subsequently with a silylating agent before analysis. In LC-MS analysis, both fractions were reconstituted in appropriate solvent mixtures. HPLC was performed by gradient elution on reversed phase separation columns.\nSteroids and their metabolites were measured by online SPE-LC-MS (Solid phase extraction-LC-MS).\nFollowing comprehensive analytical validation steps, the data for each analyte were normalized against data from pool samples. These samples were run in parallel through the whole process to account for process variability. The significance of treatment group values specific for sex, treatment duration and metabolite was determined by comparing means of the treated groups to the means of the respective untreated control groups using WELCH-test and quantified with treatment ratios versus control and p-values.", "data": [{"smiles": "CNC(=O)/C(=N/OC)c1ccccc1CO/N=C(C)/C(=N/OC)C(/C)=N/OC", "note": "[Orysastrobin, (2E)-2-(methoxyimino)-2-{2-[(3E,5E,6E)-5-(methoxyimino)-4,6-dimethyl-2,8-dioxa-3,7-diazanona-3,6-dien-1-yl]phenyl}-N-methylacetamide]", "values": [{"measurement": "Cholic acid, treatment ratio versus control", "setting": "female rats, day 7", "result": 15.95}, {"measurement": "Choline plasmalogen (C18,C20:4), treatment ratio versus control", "setting": "female rats, day 7", "result": "1.18*"}, {"measurement": "Citrate, treatment ratio versus control", "setting": "female rats, day 7", "result": "1.24*"}, {"measurement": "Creatinine, treatment ratio versus control", "setting": "female rats, day 7", "result": 0.9}, {"measurement": "DAG (C18:1,C18:2), treatment ratio versus control", "setting": "female rats, day 7", "result": "2.21*"}, {"measurement": "Hippuric acid, treatment ratio versus control", "setting": "female rats, day 7", "result": 0.91}, {"measurement": "Indole-3-propionic acid, treatment ratio versus control", "setting": "female rats, day 7", "result": 0.54}, {"measurement": "Methionine, treatment ratio versus control", "setting": "female rats, day 7", "result": "1.33*"}, {"measurement": "Proline, treatment ratio versus control", "setting": "female rats, day 7", "result": 1.03}, {"measurement": "Serine, treatment ratio versus control", "setting": "female rats, day 7", "result": "1.32*"}, {"measurement": "TAG (C16:0,C18:1,C18:3), treatment ratio versus control", "setting": "female rats, day 7", "result": 1.02}, {"measurement": "TAG (C18:1,C18:2), treatment ratio versus control", "setting": "female rats, day 7", "result": "1.34*"}, {"measurement": "TAG (C18:2,C18:2), treatment ratio versus control", "setting": "female rats, day 7", "result": "1.63*"}, {"measurement": "TAG (C18:2,C18:3), treatment ratio versus control", "setting": "female rats, day 7", "result": "1.37*"}, {"measurement": "TAG (DAG-Fragment), treatment ratio versus control", "setting": "female rats, day 7", "result": "1.62*"}, {"measurement": "TAG No 02, treatment ratio versus control", "setting": "female rats, day 7", "result": 1}, {"measurement": "TAG No 07, treatment ratio versus control", "setting": "female rats, day 7", "result": 1.19}, {"measurement": "Threonine, treatment ratio versus control", "setting": "female rats, day 7", "result": "1.83*"}, {"measurement": "alpha-Tocopherol, treatment ratio versus control", "setting": "female rats, day 7", "result": "1.27*"}, {"measurement": "Cholic acid, treatment ratio versus control", "setting": "female rats, day 14", "result": "2.8*"}, {"measurement": "Choline plasmalogen (C18,C20:4), treatment ratio versus control", "setting": "female rats, day 14", "result": "1.13*"}, {"measurement": "Citrate, treatment ratio versus control", "setting": "female rats, day 14", "result": 1.04}, {"measurement": "Creatinine, treatment ratio versus control", "setting": "female rats, day 14", "result": 1.08}, {"measurement": "DAG (C18:1,C18:2), treatment ratio versus control", "setting": "female rats, day 14", "result": "2.83*"}, {"measurement": "Hippuric acid, treatment ratio versus control", "setting": "female rats, day 14", "result": 1.04}, {"measurement": "Indole-3-propionic acid, treatment ratio versus control", "setting": "female rats, day 14", "result": 0.73}, {"measurement": "Methionine, treatment ratio versus control", "setting": "female rats, day 14", "result": "1.12*"}, {"measurement": "Proline, treatment ratio versus control", "setting": "female rats, day 14", "result": "1.08*"}, {"measurement": "Serine, treatment ratio versus control", "setting": "female rats, day 14", "result": "1.26*"}, {"measurement": "TAG (C16:0,C18:1,C18:3), treatment ratio versus control", "setting": "female rats, day 14", "result": "2.42*"}, {"measurement": "TAG (C18:1,C18:2), treatment ratio versus control", "setting": "female rats, day 14", "result": "2.28*"}, {"measurement": "TAG (C18:2,C18:2), treatment ratio versus control", "setting": "female rats, day 14", "result": "3.02*"}, {"measurement": "TAG (C18:2,C18:3), treatment ratio versus control", "setting": "female rats, day 14", "result": "1.94*"}, {"measurement": "TAG (DAG-Fragment), treatment ratio versus control", "setting": "female rats, day 14", "result": "3.03*"}, {"measurement": "TAG No 02, treatment ratio versus control", "setting": "female rats, day 14", "result": "0.84*"}, {"measurement": "TAG No 07, treatment ratio versus control", "setting": "female rats, day 14", "result": "1.99*"}, {"measurement": "Threonine, treatment ratio versus control", "setting": "female rats, day 14", "result": "1.83*"}, {"measurement": "alpha-Tocopherol, treatment ratio versus control", "setting": "female rats, day 14", "result": "1.24*"}, {"measurement": "Cholic acid, treatment ratio versus control", "setting": "female rats, day 28", "result": "5.13*"}, {"measurement": "Choline plasmalogen (C18,C20:4), treatment ratio versus control", "setting": "female rats, day 28", "result": "1.26*"}, {"measurement": "Citrate, treatment ratio versus control", "setting": "female rats, day 28", "result": "1.08*"}, {"measurement": "Creatinine, treatment ratio versus control", "setting": "female rats, day 28", "result": 0.84}, {"measurement": "DAG (C18:1,C18:2), treatment ratio versus control", "setting": "female rats, day 28", "result": "3.11*"}, {"measurement": "Hippuric acid, treatment ratio versus control", "setting": "female rats, day 28", "result": "0.41*"}, {"measurement": "Indole-3-propionic acid, treatment ratio versus control", "setting": "female rats, day 28", "result": "0.64*"}, {"measurement": "Methionine, treatment ratio versus control", "setting": "female rats, day 28", "result": "1.11*"}, {"measurement": "Proline, treatment ratio versus control", "setting": "female rats, day 28", "result": 1.1}, {"measurement": "Serine, treatment ratio versus control", "setting": "female rats, day 28", "result": "1.16*"}, {"measurement": "TAG (C16:0,C18:1,C18:3), treatment ratio versus control", "setting": "female rats, day 28", "result": "1.86*"}, {"measurement": "TAG (C18:1,C18:2), treatment ratio versus control", "setting": "female rats, day 28", "result": "1.98*"}, {"measurement": "TAG (C18:2,C18:2), treatment ratio versus control", "setting": "female rats, day 28", "result": "1.79*"}, {"measurement": "TAG (C18:2,C18:3), treatment ratio versus control", "setting": "female rats, day 28", "result": "1.63*"}, {"measurement": "TAG (DAG-Fragment), treatment ratio versus control", "setting": "female rats, day 28", "result": "2.22*"}, {"measurement": "TAG No 02, treatment ratio versus control", "setting": "female rats, day 28", "result": 1.02}, {"measurement": "TAG No 07, treatment ratio versus control", "setting": "female rats, day 28", "result": 1.5}, {"measurement": "Threonine, treatment ratio versus control", "setting": "female rats, day 28", "result": "1.58*"}, {"measurement": "alpha-Tocopherol, treatment ratio versus control", "setting": "female rats, day 28", "result": "1.33*"}, {"measurement": "Alanine, treatment ratio versus control", "setting": "male rats, day 7", "result": "1.15*"}, {"measurement": "Campesterol, treatment ratio versus control", "setting": "male rats, day 7", "result": 1.14}, {"measurement": "Citrate, treatment ratio versus control", "setting": "male rats, day 7", "result": "1.12*"}, {"measurement": "Creatinine, treatment ratio versus control", "setting": "male rats, day 7", "result": 1.04}, {"measurement": "Glutamate, treatment ratio versus control", "setting": "male rats, day 7", "result": 1.09}, {"measurement": "Glutamine, treatment ratio versus control", "setting": "male rats, day 7", "result": 0.96}, {"measurement": "Hippuric acid, treatment ratio versus control", "setting": "male rats, day 7", "result": 0.69}, {"measurement": "Lysophosphatidylcholine (C20:4), treatment ratio versus control", "setting": "male rats, day 7", "result": "0.86*"}, {"measurement": "Malate, treatment ratio versus control", "setting": "male rats, day 7", "result": "1.17*"}, {"measurement": "Methionine, treatment ratio versus control", "setting": "male rats, day 7", "result": "1.05*"}, {"measurement": "Ornithine, treatment ratio versus control", "setting": "male rats, day 7", "result": "1.28*"}, {"measurement": "Phosphatidylcholine (C18:0, C22:6), treatment ratio versus control", "setting": "male rats, day 7", "result": "1.39*"}, {"measurement": "Serine, treatment ratio versus control", "setting": "male rats, day 7", "result": "1.17*"}, {"measurement": "Threonic acid, treatment ratio versus control", "setting": "male rats, day 7", "result": "2.29*"}, {"measurement": "Threonine, treatment ratio versus control", "setting": "male rats, day 7", "result": "1.28*"}, {"measurement": "Alanine, treatment ratio versus control", "setting": "male rats, day 14", "result": 1.05}, {"measurement": "Campesterol, treatment ratio versus control", "setting": "male rats, day 14", "result": 1.07}, {"measurement": "Citrate, treatment ratio versus control", "setting": "male rats, day 14", "result": 1.04}, {"measurement": "Creatinine, treatment ratio versus control", "setting": "male rats, day 14", "result": 1.03}, {"measurement": "Glutamate, treatment ratio versus control", "setting": "male rats, day 14", "result": "0.77*"}, {"measurement": "Glutamine, treatment ratio versus control", "setting": "male rats, day 14", "result": "0.81*"}, {"measurement": "Hippuric acid, treatment ratio versus control", "setting": "male rats, day 14", "result": "0.58*"}, {"measurement": "Lysophosphatidylcholine (C20:4), treatment ratio versus control", "setting": "male rats, day 14", "result": "0.77*"}, {"measurement": "Malate, treatment ratio versus control", "setting": "male rats, day 14", "result": 1.08}, {"measurement": "Methionine, treatment ratio versus control", "setting": "male rats, day 14", "result": 1}, {"measurement": "Ornithine, treatment ratio versus control", "setting": "male rats, day 14", "result": "1.31*"}, {"measurement": "Phosphatidylcholine (C18:0, C22:6), treatment ratio versus control", "setting": "male rats, day 14", "result": "1.34*"}, {"measurement": "Serine, treatment ratio versus control", "setting": "male rats, day 14", "result": "1.1*"}, {"measurement": "Threonic acid, treatment ratio versus control", "setting": "male rats, day 14", "result": "1.86*"}, {"measurement": "Threonine, treatment ratio versus control", "setting": "male rats, day 14", "result": 1.23}, {"measurement": "Alanine, treatment ratio versus control", "setting": "male rats, day 28", "result": 1.02}, {"measurement": "Campesterol, treatment ratio versus control", "setting": "male rats, day 28", "result": "0.49*"}, {"measurement": "Citrate, treatment ratio versus control", "setting": "male rats, day 28", "result": "1.09*"}, {"measurement": "Creatinine, treatment ratio versus control", "setting": "male rats, day 28", "result": 1.16}, {"measurement": "Glutamate, treatment ratio versus control", "setting": "male rats, day 28", "result": 0.88}, {"measurement": "Glutamine, treatment ratio versus control", "setting": "male rats, day 28", "result": "0.71*"}, {"measurement": "Hippuric acid, treatment ratio versus control", "setting": "male rats, day 28", "result": "0.48*"}, {"measurement": "Lysophosphatidylcholine (C20:4), treatment ratio versus control", "setting": "male rats, day 28", "result": "0.81*"}, {"measurement": "Malate, treatment ratio versus control", "setting": "male rats, day 28", "result": 1.16}, {"measurement": "Methionine, treatment ratio versus control", "setting": "male rats, day 28", "result": "1.1*"}, {"measurement": "Ornithine, treatment ratio versus control", "setting": "male rats, day 28", "result": "1.21*"}, {"measurement": "Phosphatidylcholine (C18:0, C22:6), treatment ratio versus control", "setting": "male rats, day 28", "result": "1.19*"}, {"measurement": "Serine, treatment ratio versus control", "setting": "male rats, day 28", "result": "1.26*"}, {"measurement": "Threonic acid, treatment ratio versus control", "setting": "male rats, day 28", "result": "2.17*"}, {"measurement": "Threonine, treatment ratio versus control", "setting": "male rats, day 28", "result": "1.14*"}, {"measurement": "capability of inducing an iron adsorption disorder", "setting": "statement in words", "result": "capable of inducing an iron adsorption disorder"}]}]}
